Several values for one entry are separate records, joined by “and”; a condition that tells them apart may be missing. Identical values can stand only once. Entries after “also recorded” stand apart in the source; their conditions may differ.
Columns and labels:
HSC-T6 = experiment: Hepatic stellate cell proliferation assay (tetrazolium dye reduction); type: cell-based, rat; conditions: 2 days exposure
Description: FIG. 3: Effect of norepinephrin on hepatic stellate cell (HSC) proliferation. Cells were exposed to increasing concentrations of norepinephrin for 2 days. Cell number was evaluated through the measurement of the reduction of the dye 3-(4,5-dimethylthiazol-2yl)-2,5 diphenyltetrazolium.
FIG. 4: Effect of prazosin on hepatic stellate cell proliferation induced by norepinephrin Cells were exposed to increasing concentrations of prazosin, either alone (open symbols), or in the presence of 100 nM norepinephrin (closed symbols). Cell number was evaluated through the measurement of the reduction of the dye 3-(4,5-dimethylthiazol-2yl)-2,5 diphenyltetrazolium. The marginal proliferation index was calculated as: (ODexperimental sample—ODday 0)/(ODcontrol—ODday 0), where OD is the optical density measured at the end of the experiment.
(§1) The inventors used an established rat HSC cell line, named HSC-T6.
Cells were exposed to increasing concentrations of norepinephrin for 2 days. In some experiments, cells were also exposed to increasing concentrations of prazosin. Cell number was evaluated through the measurement of the reduction of the dye 3-(4,5-dimethylthiazol-2yl)-2,5 diphenyltetrazolium.

TIMP-1 mRNA [1] = experiment: TIMP-1 mRNA expression by cultured HSC-T6 cells (Northern blot); type: cell-based, rat; conditions: Norepinephrin 100 nM, mean ±SEM
Description: as §1
TIMP-1 increases fibrosis deposition by inhibiting its degradation by matrix metalloproteinases. The inventors observed in example 1 that noradrenergic antagonism in vivo led to a drastic decrease in liver TIMP-1 mRNA expression. They have further measured the effect of norepinephrin on TIMP-1 mRNA expression by cultured HSC-T6 cells. Total RNA was purified from cells exposed for 3, 6, or 24 hours to 100 nM norepinephrin. The RNAs were analyzed by Northern blot with a probe specific for rat TIMP-1. The blots were subsequently dehybridized and rehybridized with a probe to rat glyceraldehyde 3-phosphate dehydrogenase to ensure proper loading and transfer. TIMP-1/GADPH ratios were calculated and the results are shown respective to control values without norepinephrin.
Results are expressed as TIMP-1/GAPDH ratios relative to control values (mean ±SEM)

[2] = tested on: CCl4-induced liver fibrosis; experiment: CCl4-induced liver fibrosis in rats, fibrosis area by Picro Sirius red image analysis; type: in vivo, rat; conditions: for area of fibrosis (% of field area): control 0.63±0.06%
Description: (§2) All experiments were carried out using accepted ethical guidelines. Male Wistar rats (Charles River, St Aubin-les-Elbeuf, France) weighing 200-250 g were used in this study. The animals had free access to food and drinking water. Fibrosis was induced by giving CCl4 (Sigma, St Quentin-Fallavier, France) mixed with olive oil (1vol: 5vol.) at 0.375 ml/kg body weight by gavage, three times a week, on Monday, Wednesday and Friday. Control animals for CCl4 received only olive oil.
(§3) Sympathetic chemical denervation was performed with OHDA (Sigma). OHDA was freshly prepared in saline containing 0.4% (w/v) ascorbic acid (Sigma). OHDA was administered intraperitoneally, twice a week on 2 consecutive days (Monday and Tuesday) at the dose of 25 mg/kg body weight. The first injection was given 4 to 6 hours before the first administration of CCl4. Control animals for OHDA received only the solvent.
(§4) Thus, 4 groups including each 6 animals could be distinguished. Group I: olive oil and saline alone; group II: olive oil and OHDA alone; group III: CCl4 with saline; group IV: CCl4 with OHDA. These animals were treated for 2 weeks. In another series of experiments, animals were similarly treated for 6 weeks. In that case, both control groups included only 3 animals.
Finally, other animals were treated with the specific α1-adrenergic receptor antagonist prazosin (Sigma), given in drinking water daily at a dose of 50 mg/l during 2 weeks. Group V animals received CCl4 alone, while group VI received CCl4 with prazosin. Both groups included 6 animals.
At the designated time points, the animals were sacrificed. Liver samples were taken from several lobes and either snap frozen in liquid nitrogen, cryopreserved in OCT compound (Sakura, Torrance, Calif.) and snap-frozen in liquid nitrogen-cooled isopentane, or fixed in buffered formalin.
This was done on formalin-fixed, paraffin-embedded sections stained with Picro Sirius red, using image analysis. All samples from a series of experiments were stained simultaneously. Quantitative data were obtained using a computerized image analysis system (Biocom 500, Les Ulis, France) including a personal computer (DESK PRO, Compaq, Houston, Tex.), a CCD video camera (Sony, Japan) and a Zeiss microscope (Jena, Germany). Sampling corresponded to 3 sections from 3 different lobes. The analysis was performed on an average of 50 fields per section using the ×4 objective. The whole surface of the sections was used for analysis with the exception of large centrolobular veins (diameter ≧150 μm) and large portal tracts. Fibrosis deposition was expressed as a percentage of stained areas on the total measured area.
Interassay variation was calculated in preliminary experiments and found to be 1.4%. When the percentage of reduction in areas of fibrosis consecutive to treatments was calculated, control values were first substracted.

[3] = tested on: liver norepinephrin stores; experiment: Liver catecholamine (norepinephrin) content by HPLC with electrochemical detection; type: in vivo, rat; conditions: for Norepinephrin content in liver: 2 weeks, mean ± 1 SD; for decrease in the liver norepinephrin content: OHDA 2 weeks
Description: as §3, §4
Extraction was performed on liver homogenates (10% w/v, in 0.05 M ice-cold Tris-HCl buffer at pH 7.4) according to the method of Smedes et al. using […] as internal standard (Smedes et al., 1982). Extracts were analyzed by HPLC with electrochemical detection.

[4] = Vital parameters and liver function tests after 2 weeks of treatment; type: in vivo, rat; conditions: for Bilirubin / ALAT / ASAT / Alkaline phosphatase / LW/BW ratio (X100) / Liver weight / Body weight: 2 weeks; for Bilirubin / ALAT / ASAT / Alkaline phosphatase: serum
Description: as §2, §3, §4
Serum samples were also collected.

type I collagen mRNA = experiment: Liver type I collagen transcripts (quantitative RT-PCR, in situ hybridization); type: in vivo, rat; conditions: 6 weeks
Description: In situ hybridization was performed on frozen sections according to a protocol described earlier, using [α^33P]UTP labeled riboprobes (Faouzi et al., 1999). The probe used was a 900 bp fragment of the rat α2(I) collagen cDNA, (Genovese et aL, 1984). The cDNA was subcloned into the pGEM5Z f(+) vector. Antisense and sense probes were generated by in vitro transcription. Their size was reduced to ˜250 nt by alkaline hydrolysis.
Total RNA was prepared from liver samples by the method of Chomczynski and Sacchi (1987), modified as described by Puissant and Houdebine (1990).
Type I collagen specific transcripts were quantified by a technique of quantitative RT-PCR, that has previously been described in detail (Bieche et al., 2000). Each sample was normalized on the basis of its expression of the RPLPO gene (also known as 36B4, encoding human acidic ribosomal phosphoprotein P0).

TIMP-1 mRNA [5] = experiment: Liver TIMP-1 mRNA by Northern blot (TIMP-1/GAPDH ratio); type: in vivo, rat
Description: […] The blot was then stripped and rehybridized with a rat GAPDH (glyceraldehyde-3-phosphate dehydrogenase) probe.
[…] of total RNA extracted from rat liver was analyzed by Northern blot. RNAs were separated on a 0.8% agarose gel containing ethidium bromide in MOPS buffer. Running buffer and gel contained 0.2 M formaldehyde. The RNAs were transferred onto a positively charged nylon membrane (Amersham, Orsay, France) by downward capillary transfer in running buffer. Examination of the stained membrane under UV light was used to confirm the quality of loading and transfer. A rat TIMP-1 cDNA probe was labeled with [α^32P]dCTP by random priming using the Ready-to-go kit from Roche (Meylan, France). Hybridization was performed using the Ultrahyb solution (Ambion, Austin, Tex.). The blots were washed in stringent conditions (0.1×SSC, 0.1% SDS at 65° C.). To further confirm the loading and transfer accuracy, blots were rehybridized with a rat GAPDH cDNA probe (Fort et al., 1985). The signals were quantified with the Kodak 1 D Image Analysis Software (Eastman Kodak Company, Rochester, N.Y.). Results are presented as TIMP-1/GAPDH ratios.

[6] = tested on: CCl4-induced hepatocyte necrosis; experiment: Acute toxicity of CCl4: liver function tests and area of necrosis
Description: Routine liver function blood tests (bilirubin, alkaline phosphatase and transaminases) were performed on an automated analyzer.
Thus, groups of animals treated with 2 administrations of CCl4 with or without 2 injections of OHDA were sacrificed 24 hours after the second CCl4 treatment and evaluated for acute toxicity of CCl4 by serum tests and measurement of the area of necrosis on liver sections.
The percentage of necrosis area was determined on hematoxylin and eosin stained sections by image analysis.

SMILES: NC[C@H](O)c1ccc(O)c(O)c1 [norepinephrin]
- concentration at plateau of HSC-T6 proliferation increase (HSC-T6): 100 nM
- EC50 (HSC-T6; Rattus norvegicus, HSC-T6, 48 h, mean of 5 independent experiments in triplicate, read-out: Half-maximal effect on HSC-T6 proliferation): 25 nM
- TIMP-1/GAPDH ratio relative to control (TIMP-1 mRNA [1]; 3 h): 1,30 ± 0,15
- TIMP-1/GAPDH ratio relative to control (TIMP-1 mRNA [1]; 6 h): 1,38 ± 0,13
- TIMP-1/GAPDH ratio relative to control (TIMP-1 mRNA [1]; 24 h): 1,15 ± 0,18

SMILES: NCCc1cc(O)c(O)cc1O [OHDA, 6-hydroxydopamine]
- area of fibrosis (% of field area) ([2]; CCl4 with OHDA (group IV), 2 weeks, CCl4 alone 2.86±0.78%): 1.54±0.29%
- area of fibrosis ([2]; CCl4 with OHDA, 6 weeks, CCl4 alone 18.82±1.79%): 12.38±1.89%
- area of fibrosis (% of field area) ([2]; OHDA alone (group II), 2 weeks): 0.61±0.08%
- area of fibrosis ([2]; OHDA alone, 6 weeks): 0.47±0.03%
- reduction in the area of fibrosis ([2]; OHDA with CCl4 vs CCl4 alone, 2 weeks, control values subtracted): 60% and 60.2%
- decrease of fibrosis area ([2]; OHDA with CCl4 vs CCl4 alone, 6 weeks): 36%
- Norepinephrin content in liver ([3]; CCl4 + OHDA (group IV), CCl4 alone group III 29.1 ± 10.6): 3.6 ± 1.5 ng/g of wet liver tissue
- decrease in the liver norepinephrin content ([3]; CCl4-treated animals): 87.6%
- Norepinephrin content in liver ([3]; OHDA alone (group II), 25 mg/kg i.p. twice a week, saline group I 47.6 ± 9.9): 6.0 ± 3.2 ng/g of wet liver tissue
- decrease in the liver norepinephrin content ([3]; non CCl4-treated animals): 87.4%
- Bilirubin ([4]; CCl4 with OHDA (group IV), CCl4 alone 3.2 ± 0.7): 5.0 ± 1.4 μM.I^−1
- ALAT ([4]; CCl4 with OHDA (group IV), CCl4 alone 130 ± 98): 97 ± 37 IU.I^−1
- ASAT ([4]; CCl4 with OHDA (group IV), CCl4 alone 173 ± 82): 137 ± 29 IU.I^−1
- Alkaline phosphatase ([4]; CCl4 with OHDA (group IV), CCl4 alone 276 ± 53): 225 ± 58 IU.I^−1
- LW/BW ratio (X100) ([4]; CCl4 with OHDA (group IV), CCl4 alone 4.6 ± 0.7): 4.1 ± 0.6
- Liver weight ([4]; CCl4 with OHDA (group IV), CCl4 alone 13.7 ± 1.7): 12.5 ± 1.0 g
- Body weight ([4]; CCl4 with OHDA (group IV), CCl4 alone 298 ± 12): 293 ± 6 g
- gross toxic effects of prolonged treatment ([4]; OHDA alone (group II)): No gross toxic effects
- histologic aspect of the livers ([4]; OHDA alone (group II)): strictly normal
- Bilirubin ([4]; OHDA alone (group II), saline 4.5 ± 1.4): 2.3 ± 0.5 μM.I^−1
- ALAT ([4]; OHDA alone (group II), saline 43 ± 4): 50 ± 6 IU.I^−1
- ASAT ([4]; OHDA alone (group II), saline 120 ± 9): 94 ± 18 IU.I^−1
- Alkaline phosphatase ([4]; OHDA alone (group II), saline 178 ± 48): 274 ± 46 IU.I^−1
- LW/BW ratio (X100) ([4]; OHDA alone (group II), saline 3.7 ± 0.2): 4.4 ± 0.2
- Liver weight ([4]; OHDA alone (group II), saline 12.9 ± 1.0): 16.0 ± 1.1 g
- Body weight ([4]; OHDA alone (group II), saline 344 ± 17): 365 ± 14 g
- type I collagen mRNA level (quantitative RT-PCR) (type I collagen mRNA; CCl4 together with OHDA, CCl4 alone 477.2±91.0, control 16.0±5.9): 364.5±68.7 arbitrary units
- decrease in type I collagen mRNA level (type I collagen mRNA; CCl4 with OHDA vs CCl4 only): 24%
- effect on CCl4-induced increase of liver TIMP-1 mRNA (TIMP-1/GAPDH ratio) (TIMP-1 mRNA [5]; CCl4 with OHDA (group IV), 2 weeks): abrogated; also recorded: normalization of the TIMP-1/GAPDH ratio back to control values
- effect on CCl4-induced increase of liver TIMP-1 mRNA (TIMP-1 mRNA [5]; CCl4 with OHDA, 6 weeks): greatly reduced
- reduction in the TIMP-1/GAPDH ratio (TIMP-1 mRNA [5]; CCl4 with OHDA, 6 weeks, all animals, not statistically significant): 45%
- reduction in the TIMP-1/GAPDH ratio (TIMP-1 mRNA [5]; CCl4 with OHDA, 6 weeks, one animal with very high value removed, p=0.05): 57%
- Necrosis area ([6]; CCl4 + OHDA, 96 hs, hematoxylin and eosin sections, CCl4 alone 4.6 ± 2.3): 3.3 ± 1.0%
- ALAT ([6]; CCl4 + OHDA, 96 hs, CCl4 alone 269 ± 117): 221 ± 71 IU.I^−1
- Alkaline phosphatase ([6]; CCl4 + OHDA, 96 hs, CCl4 alone 314 ± 111): 240 ± 117 IU.I^−1
- ASAT ([6]; CCl4 + OHDA, 96 hs, CCl4 alone 452 ± 152): 342 ± 62 IU.I^−1
- effect on the acute toxicity of CCl4 (biological tests and necrosis area) ([6]; co-treatment with CCl4 vs CCl4 alone): no statistically significant difference

Reference: patent publication US6649615B2, “Method for inhibiting fibrogenesis” (Institute National de la Sante et de la Recherche Medicale …, priority 2002, dated 2003)
